Reference: the NIST ThermoML archive (doi:10.1016/j.jct.2012.02.007)

Tests used:
[1] = osmotic coefficient (dimensionless); mn = molality of the nth substance listed, in mol/kg; settings: 323.15 K, Liquid, Vapor Pressure Osmometer
[2] = mn = molality of the nth substance listed, in mol/kg; settings: 101.3 kPa, Liquid; for speed of sound: Sing-around technique in a fixed-path interferometer; for mass density: Vibrating tube method

CCCCn1cc[n+](C)c1.N#CN=C=[N-] [1-butyl-3-methylimidazolium dicyanamide] + CC(C)O
[1]
Settings	osmotic coefficient
m1 = 0.0572	0.973
m1 = 0.0884	0.925
m1 = 0.1125	0.905
m1 = 0.2169	0.838
m1 = 0.3275	0.795
m1 = 0.4213	0.77
m1 = 0.5065	0.757
m1 = 0.8172	0.712
m1 = 1.153	0.682
m1 = 1.6	0.665
m1 = 2.049	0.641
m1 = 2.416	0.619
m1 = 2.863	0.592
m1 = 3.314	0.565

[2]
Settings	mass density, 293.15 K [kg/m3]	mass density, 308.15 K [kg/m3]	mass density, 323.15 K [kg/m3]	speed of sound, 293.15 K [m/s]	speed of sound, 308.15 K [m/s]	speed of sound, 323.15 K [m/s]
m1 = 0.0497	788.07	775.35	761.85	1163.1	1110.6	1057.6
m1 = 0.1012	790.54	777.9	764.5	1167.4	1115.4	1062.8
m1 = 0.1541	793.01	780.44	767.13	1171.9	1120.2	1067.8
m1 = 0.2003	795.12	782.61	769.37	1175.6	1124.1	1072
m1 = 0.2521	797.4	784.94	771.79	1179.7	1128.4	1076.6
m1 = 0.5105	808.27	796.04	783.22	1199.3	1148.9	1098.1
m1 = 0.7616	817.89	805.84	793.27	1216.7	1167	1117.1
m1 = 1.016	826.92	815.02	802.67	1233.3	1184.4	1135.3
m1 = 1.264	835.03	823.26	811.1	1248.4	1200	1151.6
m1 = 1.523	843.01	831.36	819.36	1263.4	1215.6	1167.9
m1 = 1.784	850.52	838.97	827.12	1278	1230.6	1183.3
m1 = 2.022	856.61	845.16	833.43	1289.6	1242.8	1196.1
m1 = 2.519	868.38	857.09	845.59	1312.7	1266.6	1220.9
m1 = 3.014	878.91	867.77	856.45	1333.7	1288.3	1243.4
m1 = 3.553	889.91	878.92	867.79	1356	1311.2	1267

CCCCn1cc[n+](C)c1.N#CN=C=[N-] [1-butyl-3-methylimidazolium dicyanamide] + CCC(C)O
[1]
Settings	osmotic coefficient
m1 = 0.0525	0.893
m1 = 0.0792	0.826
m1 = 0.0995	0.811
m1 = 0.2159	0.76
m1 = 0.3148	0.715
m1 = 0.4003	0.687
m1 = 0.5143	0.653
m1 = 0.8478	0.592
m1 = 1.241	0.556
m1 = 1.639	0.538
m1 = 2.038	0.524
m1 = 2.439	0.517
m1 = 2.842	0.502
m1 = 3.307	0.492

[2]
Settings	mass density, 293.15 K [kg/m3]	mass density, 308.15 K [kg/m3]	mass density, 323.15 K [kg/m3]	speed of sound, 293.15 K [m/s]	speed of sound, 308.15 K [m/s]	speed of sound, 323.15 K [m/s]
m1 = 0.0516	809.04	796.59	783.23	1234.5	1180.7	1125.7
m1 = 0.1009	811.17	798.81	785.57	1238.1	1184.9	1130.4
m1 = 0.1501	813.3	801.01	787.88	1241.8	1188.8	1134.6
m1 = 0.2081	815.7	803.5	790.47	1246	1193.3	1139.5
m1 = 0.2579	817.76	805.61	792.68	1249.3	1197.1	1143.6
m1 = 0.5079	827.23	815.35	802.8	1265.7	1214.4	1162.3
m1 = 0.7631	836.25	824.57	812.32	1281.1	1230.8	1179.8
m1 = 1.016	844.37	832.86	820.86	1295.3	1245.9	1195.9
m1 = 1.267	851.96	840.59	828.79	1308.6	1260	1210.9
m1 = 1.517	858.95	847.71	836.09	1321.1	1273	1224.8
m1 = 1.782	865.94	854.81	843.35	1333.7	1286.2	1238.7
m1 = 1.95	870.16	859.09	847.71	1341.3	1294.2	1247
m1 = 2.523	883.17	872.28	861.18	1365.1	1319.1	1273.2
m1 = 3.56	902.51	891.67	880.92	1401.6	1356.4	1312.5

CCCCn1cc[n+](C)c1.N#CN=C=[N-] [1-butyl-3-methylimidazolium dicyanamide] + CCCCCO
[1]
Settings	osmotic coefficient
m1 = 0.0625	0.784
m1 = 0.0829	0.719
m1 = 0.1019	0.669
m1 = 0.2131	0.627
m1 = 0.3093	0.596
m1 = 0.4113	0.582
m1 = 0.5349	0.566
m1 = 0.8273	0.537
m1 = 1.131	0.52
m1 = 1.443	0.509
m1 = 1.749	0.502
m1 = 2.246	0.493
m1 = 2.756	0.478
m1 = 3.23	0.458

[2]
Settings	mass density, 293.15 K [kg/m3]	mass density, 308.15 K [kg/m3]	mass density, 323.15 K [kg/m3]	speed of sound, 293.15 K [m/s]	speed of sound, 308.15 K [m/s]	speed of sound, 323.15 K [m/s]
m1 = 0.0499	816.84	805.86	794.56	1296.1	1246.2	1196.7
m1 = 0.1005	818.99	808.05	796.79	1299.3	1249.5	1200.3
m1 = 0.1579	821.34	810.43	799.21	1302.8	1253.2	1204.2
m1 = 0.2012	823.14	812.25	801.07	1305.5	1256	1207.2
m1 = 0.2575	825.39	814.53	803.38	1308.7	1259.4	1210.8
m1 = 0.5093	834.72	823.96	812.96	1322.3	1273.7	1225.8
m1 = 0.7636	843.46	832.73	821.84	1334.4	1286.4	1238.6
m1 = 1.022	851.58	840.96	830.18	1346.7	1299.3	1252.8
m1 = 1.271	858.96	848.35	837.65	1357	1310.2	1263.7
m1 = 1.52	865.82	855.32	844.69	1367.7	1321.4	1275.9
m1 = 1.766	872.07	861.65	851.09	1377	1331.2	1286.1
m1 = 1.982	877.32	866.91	856.41	1385	1339.5	1294.8
m1 = 2.527	889.3	878.99	868.61	1403.6	1358.9	1315.1
m1 = 2.998	898.47	888.26	877.98	1418.4	1374.3	1331.1
m1 = 3.512	907.39	897.32	887.14	1432.6	1389.6	1347

CCCCn1cc[n+](C)c1.N#CN=C=[N-] [1-butyl-3-methylimidazolium dicyanamide] + CCCCO
[1]
Settings	osmotic coefficient
m1 = 0.0803	0.739
m1 = 0.1014	0.707
m1 = 0.2018	0.653
m1 = 0.31	0.625
m1 = 0.4166	0.604
m1 = 0.5175	0.594
m1 = 0.8182	0.585
m1 = 1.221	0.564
m1 = 1.633	0.551
m1 = 2.026	0.536
m1 = 2.413	0.528
m1 = 2.82	0.522
m1 = 3.306	0.508

[2]
Settings	mass density, 293.15 K [kg/m3]	mass density, 308.15 K [kg/m3]	mass density, 323.15 K [kg/m3]	speed of sound, 293.15 K [m/s]	speed of sound, 308.15 K [m/s]	speed of sound, 323.15 K [m/s]
m1 = 0.0564	812.2	800.77	788.99	1261.4	1211.3	1161.9
m1 = 0.1049	814.3	802.91	791.18	1264.8	1214.9	1165.8
m1 = 0.156	816.47	805.11	793.43	1268.3	1218.6	1169.6
m1 = 0.204	818.49	807.15	795.51	1271.7	1222	1173.1
m1 = 0.2581	820.7	809.41	797.8	1275.2	1225.8	1177.1
m1 = 0.5068	830.31	819.12	807.68	1290.3	1241.6	1193.7
m1 = 0.7637	839.41	828.32	817.01	1304.9	1256.7	1209.3
m1 = 1.006	847.36	836.34	825.14	1317.6	1270	1223.2
m1 = 1.271	855.38	844.45	833.35	1330.6	1283.5	1237.4
m1 = 1.516	862.28	851.41	840.4	1341.9	1295.3	1249.7
m1 = 1.766	868.85	858.05	847.12	1352.9	1306.7	1261.6
m1 = 2.004	874.76	864.01	853.15	1362.9	1317.1	1272.3
m1 = 2.509	886.17	875.53	864.81	1382.3	1337.5	1293.4
m1 = 2.993	895.87	885.33	874.72	1399.5	1355.1	1311.7
m1 = 3.535	905.44	895.01	884.51	1416.7	1373	1330.2
